From patent US7402548B2, “Benzoxazole compounds, process for producing the same and herbicides” (Kyoyu Agri Co., Ltd., priority 2000, dated 2008)

Tests used:
[1] = test system: velvetleaf; assay: Foliar spread test for upland field; format: in vivo, Abutilon theophrasti; set-up: key: 0 = normal development, 5 = all killed (6 ranks vs. untreated); conditions: foliar spray, 500 ppm, 3 weeks, glass house 25° C.
Outline: (§1)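 Scores on a 0–5 scale (0 normal development, 5 all killed), relative to untreated controls, were taken 3 weeks post-treatment in a 25 °C glass house. Treatment was a uniform foliar spray at 500 ppm (0.5% surfactant) onto roughly 2-week-old soil-grown plants.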

[2] = test system: green foxtail; assay: Foliar spread test for upland field; format: in vivo, Setaria viridis; set-up: key: 0 = normal development, 5 = all killed (6 ranks vs. untreated); conditions: foliar spray, 500 ppm, 3 weeks, glass house 25° C.
Outline: as §1

[3] = test system: livid amaranth; assay: Foliar spread test for upland field; format: in vivo, Amaranthus lividus; set-up: key: 0 = normal development, 5 = all killed (6 ranks vs. untreated); conditions: foliar spray, 500 ppm, 3 weeks, glass house 25° C.
Outline: as §1

[4] = test system: bulrush; assay: Herbicidal test for paddy field; format: in vivo, Scrips juncoides; conditions: 500 g/ha, dropwise addition to paddy water at 1.5 leaf stage of barnyard grass; glass house 25° C., 3 weeks; rank 0-5 vs non-treated district
Outline: (§2)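 Wettable-powder formulations in water with 0.05% surfactant were dripped onto flooded (3 cm) Ube alluvial-soil pots at 500 g/ha, applied at barnyard grass 1.5-leaf stage. Plants were kept in a glasshouse at 25° C. for 3 weeks. Damage was scored 0 (normal) to 5 (all killed) versus untreated plants.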

[5] = test system: common Cocklebur (Xanthium strumarium); assay: Soil treatment test for upland field; format: in vivo; conditions: 500 g/ha, 3 weeks, glass house 25° C.
Method: (§3) The herbicidal effects are evaluated according to the following 6 ranks as compared with non-treated district. (0: normal development, 1: Less damaged, 2: Slightly damaged, 3: Moderately damaged, 4: Severely damaged, 5: All killed). Incidentally, “-” in the column means not investigated.
Wagner pots, each having an area of 1/5000 are, were packed with Ube soil (alluvial soil), and then each seed of corn, soybean, cotton, wheat, solgum, sugar beat, Large crabgrass, barnyard grass, green foxtail, blackgrass, annual bluegrass, common lambsquarters, livid amaranth, velvetleaf, morning glory, common Cocklebur (Xanthium strumarium) and sicklepod (Cassia obtusifolia) were planted and covered with soil.
Each wettable powder of the desired compounds (I) shown in Tables 1 to 21, 24, 25, 28 and 29 prepared in accordance with Example 2 was diluted with water containing a surfactant (0.05%) and uniformly sprayed on the surface of each soil so that an effective concentration of the compound (I) in each herbicide became 500 g/ha.
(§4) These plants were controlled in a glass house at an average temperature of 25° C. for 3 weeks, and then herbicidal effects thereof were investigated.
(§5) The herbicidal effects were evaluated according to the evaluation method described in the above (1).

[6] = test system: barnyard grass; assay: Soil treatment test for upland field; format: in vivo, Eschinochloa crusgalli; set-up: key: 0 = normal development, 5 = all killed; conditions: 500 g/ha, 3 weeks, glass house 25° C.
Outline: (§6)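 Pre-emergence soil spray, 500 g/ha, WP formulation in water + 0.05% surfactant; alluvial soil; glasshouse, avg 25° C, 3 wk. Score 0 (normal) to 5 (all killed) vs untreated.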

[7] = test system: annual bluegrass; assay: Soil treatment test for upland field; format: in vivo, Poa annua; set-up: key: 0 = normal development, 5 = all killed; conditions: 500 g/ha, 3 weeks, glass house 25° C.
Outline: as §6

[8] = test system: soybean; assay: Foliar spread test for upland field; format: in vivo; set-up: key: 0 = normal development, 5 = all killed (6 ranks vs. untreated); conditions: foliar spray, 500 ppm, 3 weeks, glass house 25° C.
Outline: as §1

[9] = test system: wheat; assay: Foliar spread test for upland field; format: in vivo; set-up: key: 0 = normal development, 5 = all killed (6 ranks vs. untreated); conditions: foliar spray, 500 ppm, 3 weeks, glass house 25° C.
Outline: as §1

[10] = test system: sugar beat; assay: Foliar spread test for upland field; format: in vivo; set-up: key: 0 = normal development, 5 = all killed (6 ranks vs. untreated); conditions: foliar spray, 500 ppm, 3 weeks, glass house 25° C.
Outline: as §1

[11] = test system: solgum; assay: Foliar spread test for upland field; format: in vivo; set-up: key: 0 = normal development, 5 = all killed (6 ranks vs. untreated); conditions: foliar spray, 500 ppm, 3 weeks, glass house 25° C.
Outline: as §1

[12] = test system: corn; assay: Foliar spread test for upland field; format: in vivo; set-up: key: 0 = normal development, 5 = all killed (6 ranks vs. untreated); conditions: foliar spray, 500 ppm, 3 weeks, glass house 25° C.
Outline: as §1

[13] = test system: cotton; assay: Foliar spread test for upland field; format: in vivo; set-up: key: 0 = normal development, 5 = all killed (6 ranks vs. untreated); conditions: foliar spray, 500 ppm, 3 weeks, glass house 25° C.
Outline: as §1

[14] = test system: arrowhead; assay: Herbicidal test for paddy field; format: in vivo, Sagittaria pygmaea; conditions: 500 g/ha, dropwise addition to paddy water at 1.5 leaf stage of barnyard grass; glass house 25° C., 3 weeks; rank 0-5 vs non-treated district
Method: (§7) Wagner pots, each having an area of 1/5000 are, were packed with Ube soil (alluvial soil) and planted with seeds or tubers of young rice plant, barnyard grass, bulrush, Cyperus serotinus Rottb., arrowhead and monochoria. Then, the pots were filled with water to a depth of 3 cm.
(§8) Each wettable powder of the desired Compounds (I) shown in Tables 1 to 21, 24, 25, 28 and 29 prepared in accordance with Example 2 was diluted with water containing a surfactant (0.05%) and subjected to dropwise addition treatment by using pipet so that an effective concentration of the compound (I) in each herbicide became 500 g/ha at 1.5 leaf stage of barnyard grass.
as §4, §3

[15] = test system: barnyard grass; assay: Herbicidal test for paddy field; format: in vivo, Eschinochloa crusgalli; conditions: 500 g/ha, dropwise addition to paddy water at 1.5 leaf stage of barnyard grass; glass house 25° C., 3 weeks; rank 0-5 vs non-treated district
Outline: as §2

[16] = test system: morning glory; assay: Soil treatment test for upland field; format: in vivo, Ipomoea spps.; set-up: key: 0 = normal development, 5 = all killed; conditions: 500 g/ha, 3 weeks, glass house 25° C.
Outline: as §6

[17] = test system: barnyardgrjass; assay: Foliar spread test for upland field; format: in vivo, Eschinochloa crusgalli; set-up: key: 0 = normal development, 5 = all killed (6 ranks vs. untreated); conditions: foliar spray, 500 ppm, 3 weeks, glass house 25° C.
Outline: as §1

[18] = test system: wheat; assay: Soil treatment test for upland field; format: in vivo; set-up: key: 0 = normal development, 5 = all killed; conditions: 500 g/ha, 3 weeks, glass house 25° C.
Outline: as §6

[19] = test system: sugar beat; assay: Soil treatment test for upland field; format: in vivo; set-up: key: 0 = normal development, 5 = all killed; conditions: 500 g/ha, 3 weeks, glass house 25° C.
Outline: as §6

[20] = test system: solgum; assay: Soil treatment test for upland field; format: in vivo; set-up: key: 0 = normal development, 5 = all killed; conditions: 500 g/ha, 3 weeks, glass house 25° C.
Outline: as §6

[21] = test system: corn; assay: Soil treatment test for upland field; format: in vivo; set-up: key: 0 = normal development, 5 = all killed; conditions: 500 g/ha, 3 weeks, glass house 25° C.
Outline: as §6

[22] = test system: blackgrass; assay: Soil treatment test for upland field; format: in vivo, Alopecurus aegualis; set-up: key: 0 = normal development, 5 = all killed; conditions: 500 g/ha, 3 weeks, glass house 25° C.
Outline: as §6

[23] = test system: common lambsquarters; assay: Soil treatment test for upland field; format: in vivo, Chenopodium album; set-up: key: 0 = normal development, 5 = all killed; conditions: 500 g/ha, 3 weeks, glass house 25° C.
Outline: as §6

[24] = test system: annual bluegrass; assay: Foliar spread test for upland field; format: in vivo, Poa annua; set-up: key: 0 = normal development, 5 = all killed (6 ranks vs. untreated); conditions: foliar spray, 500 ppm, 3 weeks, glass house 25° C.
Outline: as §1

[25] = test system: blackgrass; assay: Foliar spread test for upland field; format: in vivo, Alopecurus aegualis; set-up: key: 0 = normal development, 5 = all killed (6 ranks vs. untreated); conditions: foliar spray, 500 ppm, 3 weeks, glass house 25° C.
Outline: as §1

[26] = test system: velvetleaf; assay: Soil treatment test for upland field; format: in vivo, Abutilon theophrasti; set-up: key: 0 = normal development, 5 = all killed; conditions: 500 g/ha, 3 weeks, glass house 25° C.
Outline: as §6

[27] = test system: livid amaranth; assay: Soil treatment test for upland field; format: in vivo, Amaranthus lividus; set-up: key: 0 = normal development, 5 = all killed; conditions: 500 g/ha, 3 weeks, glass house 25° C.
Outline: as §6

[28] = test system: Large crabgrass; assay: Soil treatment test for upland field; format: in vivo, Digitaria adscendens; set-up: key: 0 = normal development, 5 = all killed; conditions: 500 g/ha, 3 weeks, glass house 25° C.
Outline: as §6

[29] = test system: green foxtail; assay: Soil treatment test for upland field; format: in vivo, Setaria viridis; set-up: key: 0 = normal development, 5 = all killed; conditions: 500 g/ha, 3 weeks, glass house 25° C.
Outline: as §6

[30] = test system: morning glory; assay: Foliar spread test for upland field; format: in vivo, Ipomoea spps.; set-up: key: 0 = normal development, 5 = all killed (6 ranks vs. untreated); conditions: foliar spray, 500 ppm, 3 weeks, glass house 25° C.
Outline: as §1

[31] = test system: common lambsquarters; assay: Foliar spread test for upland field; format: in vivo, Chenopodium album; set-up: key: 0 = normal development, 5 = all killed (6 ranks vs. untreated); conditions: foliar spray, 500 ppm, 3 weeks, glass house 25° C.
Outline: as §1

[32] = test system: Cassia obtusifolia; assay: Foliar spread test for upland field; format: in vivo; set-up: key: 0 = normal development, 5 = all killed; conditions: foliar spray, 500 ppm, 3 weeks, glass house 25° C.
Method: as §3
(§9) Wagner pots, each having an area of 1/5000 are, were packed with volcanic ash soil and then each seed of corn, soybean, cotton, wheat, solgum, sugar beat, Large crabgrass, barnyardgrjass, green foxtail, blackgrass, annual bluegrass, common lambsquarters, livid amaranth, velvetleaf, morning glory, Xanthium pensylvanicum and Cassia obtusifolia was planted, covered with soil and grown in a glass house at an average temperature of 25° C. for about 2 weeks.
(§10) Each wettable powder of the desired compounds (I) shown in Tables 1 to 21, 24, 25, 28 and 29 prepared in accordance with Example 2 was diluted to 500 ppm with water containing a surfactant (0.5%) and then uniformly sprayed on the above respective plants.
(§11) After these plants were controlled in a glass house at an average temperature of 25° C. for 3 weeks, the herbicidal effects thereof were investigated.
as §5

[33] = test system: Xanthium pensylvanicum; assay: Foliar spread test for upland field; format: in vivo; set-up: key: 0 = normal development, 5 = all killed; conditions: foliar spray, 500 ppm, 3 weeks, glass house 25° C.
Method: as §3, §9, §10, §11, §5

[34] = test system: Cyperus serotinus Rottb.; assay: Herbicidal test for paddy field; format: in vivo; conditions: 500 g/ha, dropwise addition to paddy water at 1.5 leaf stage of barnyard grass; glass house 25° C., 3 weeks; rank 0-5 vs non-treated district
Outline: as §2

[35] = test system: Large crabgrass; assay: Foliar spread test for upland field; format: in vivo, Digitaria adscendens; set-up: key: 0 = normal development, 5 = all killed (6 ranks vs. untreated); conditions: foliar spray, 500 ppm, 3 weeks, glass house 25° C.
Outline: as §1

[36] = test system: soybean; assay: Soil treatment test for upland field; format: in vivo; set-up: key: 0 = normal development, 5 = all killed; conditions: 500 g/ha, 3 weeks, glass house 25° C.
Outline: as §6

[37] = test system: monochoria; assay: Herbicidal test for paddy field; format: in vivo, Monochoria vaginalis; conditions: 500 g/ha, dropwise addition to paddy water at 1.5 leaf stage of barnyard grass; glass house 25° C., 3 weeks; rank 0-5 vs non-treated district
Method: as §7, §8, §4, §3

## FC(F)(F)c1cccc(Oc2cccc(-c3nc4cc(C(F)(F)F)ccc4o3)n2)c1 [I-a-13]
[1]
  Effects Velvetleaf: 4
[2]
  Effects Green foxtail: 5
[3]
  Effects Livid amaranth: 5
[4]
  Effects Bulrush: 0
[5]
  Effects Common Cocklebur: 3
[6]
  Effects Barnyardgrass: 4
[7]
  Effects Annual bluegrass: 5
[8]
  Effects Soybean: 3
[9]
  Effects Wheat: 2
[10]
  Effects Sugar beat: 4
[11]
  Effects Solgum: 2
[12]
  Effects Corn: 2
[13]
  Effects Sotton: 5
[14]
  Effects Arrowhead: 1
[15]
  Effects Barnyardgrass: 2
[16]
  Effects Morning glory: 4
[17]
  Effects Barnyardgrass: 2
[18]
  Effects Wheat: 1
[19]
  Effects Sugar beat: 5
[20]
  Effects Solgum: 0
[21]
  Effects Corn: 1
[22]
  Effects Blackgrass: 4
[23]
  Effects Common lambsquarters: 5
[24]
  Effects Annual bluegrass: 4
[25]
  Effects Blackgrass: 3
[26]
  Effects Velvetleaf: 5
[27]
  Effects Livid amaranth: 5
[28]
  Effects Large crabgrass: 5
[29]
  Effects Green foxtail: 5
[30]
  Effects Morning glory: 5
[31]
  Effects Common lambsquarters: 5
[32]
  Effects Sicklepod: 5
[33]
  Effects Common Cocklebur: 4
[34]
  Effects Cyperus serotinus Rottb.: 0
[35]
  Effects Large crabgrass: 3

## CCC(Oc1cc(C(F)(F)F)nn1C)c1nc2cc(C#N)c(F)cc2o1 (centres unmarked) [Compound 1-e-10]
[2]
  Effects Green foxtail: 5
[3]
  Effects Livid amaranth: 5
[6]
  Effects Barnyardgrass: 4
[7]
  Effects Annual bluegrass: 5
[9]
  Effects Wheat: 1
[15]
  Effects Barnyardgrass: 5
[36]
  Effects Soybean: 2
[18]
  Effects Wheat: 0
[21]
  Effects Corn: 1
[23]
  Effects Common lambsquarters: 5
[37]
  Effects Monochoria: 4
[27]
  Effects Livid amaranth: 5
[28]
  Effects Large crabgrass: 5
[29]
  Effects Green foxtail: 5
[31]
  Effects Common lambsquarters: 5
[35]
  Effects Large crabgrass: 5

## CCC(Oc1cc(C(F)(F)F)no1)c1nc2cc(C#N)c(F)cc2o1 (centres unmarked) [Compound 1-e-28]
[2]
  Effects Green foxtail: 4
[3]
  Effects Livid amaranth: 5
[6]
  Effects Barnyardgrass: 4
[7]
  Effects Annual bluegrass: 5
[9]
  Effects Wheat: 2
[12]
  Effects Corn: 2
[15]
  Effects Barnyardgrass: 5
[36]
  Effects Soybean: 1
[18]
  Effects Wheat: 0
[21]
  Effects Corn: 0
[23]
  Effects Common lambsquarters: 5
[37]
  Effects Monochoria: 5
[27]
  Effects Livid amaranth: 5
[28]
  Effects Large crabgrass: 5
[29]
  Effects Green foxtail: 5
[31]
  Effects Common lambsquarters: 5
[35]
  Effects Large crabgrass: 4
